The nature of data set [1]: Solubility of optional additional components in polyol solvents. The format is physicochemical. The source says:
Additional ingredients were chosen for their compatibility with (e.g., miscibility in) 1,3 propanediol, 1,2 propanediol, and 1,3 butanediol.

A short description of data set [2]: Comparative studies: solubilization with heating and crystallization on room temperature storage. The format is physicochemical. The settings on record: ascorbic acid together with urea in propylene glycol, butylene glycol and propanediol. The method, then:
This example was reproduced.
All mixtures were heated to 85° C.

The conditions of data set [3]: 20% urea solution, cited from earlier work.
Data set [4] is described as follows: Solubilization / recrystallization of AA with urea in 1,3 propanediol. The class given is physicochemical. The source says:
Next, concentrations of ascorbic acid beyond the aforementioned maximum concentration are solubilized, using urea as a co-solvent.

The conditions of data set [5]: cited from earlier work.
The conditions of data set [6]: use of 4% HQ versus 5% Vitamin C; cited from earlier work.

This is an account of results in patent publication US20210228467A1, “High-Potency Vitamin C Topical Formulations” (Baek Clinical Inc., priority 2018, published 2021).

One may read the pKa as the negative logarithm of the acid dissociation constant.

Read-outs that look alike come from different tables or passages of the source.

With Madecassoside, the solubility result in data set [1] (at a concentration of 0.2% in 1,3 propanediol, 1,2 propanediol and 1,3 butanediol) is listed as “soluble”.
On to `NC(N)=O` [U, urea], for which the “maximum concentrations soluble before urea starts to precipitate (the ceiling)” value in data set [2] turned out to be 20%. In addition, the pH in data set [3] (after 11 months at room temperature) was 8.8. Also, in data set [3] (start), the pH is recorded as 7.4. Besides, in data set [4], the “minimum amount U required to solubilize 20% AA” value is approximately 10% and the “saturation of U reached before recrystallization of U” value is reported as approximately 27.8%.
As to `O=C(O)CCCCCCCC(=O)O` [AzA, Azelaic acid, reference compound], the concentration solubilized result in data set [1] (in 1,3 propanediol) was “up to 10%”; in data set [1] (with 10% AA, 5% U in a 1,3 propanediol base) it was 7.5%. Moreover, in data set [5], the pKa was 4.15.
Turning to `COc1cc(CC(C(C)=O)C(C)=O)ccc1O` [Acetyl zingerone], the solubility entry in data set [1] (in 1,3 propanediol, 1,2 propanediol and 1,3 butanediol at 0.5-1%) is on record as “readily soluble”.
`Oc1ccc(O)cc1` [HQ, hydroquinone]: in data set [6], the improvement is recorded as 93% and the side-effects is given as 68.7%.
For the compound `CC1(C)[C@@H](O[C@H]2O[C@H](C(=O)O)[C@@H](O)[C@H](O)[C@H]2O[C@@H]2O[C@H](C(=O)O)[C@@H](O)[C@H](O)[C@H]2O)CC[C@]2(C)[C@H]3C(=O)C=C4[C@@H]5C[C@@](C)(C(=O)O)CC[C@]5(C)CC[C@@]4(C)[C@]3(C)CC[C@@H]12` [glycyrrhizic acid, Glycyrrhizic acid], the solubility entry in data set [1] (in 1,3-propanediol) is listed as “shows solubility”.
Take `O=C1O[C@H]([C@@H](O)CO)C(O)=C1O` [AA, L-ascorbic acid]: the improvement in data set [6] is given as 62.5%.
